Experimental data published in patent US20130183384A1, “IMMEDIATE RELEASE MULTI UNIT PELLET SYSTEM” (BOEHRINGER INGELHEIM INTERNATIONAL GMBH, priority 2011, published 2013).

Assay: Sensitivity of the drug substance to hydrolysis
Assay type: physicochemical
Conditions: especially at low pH
Excerpt: Any formulation containing both organic acid as well as drug substance in close contact is therefore at a very high risk to decomposition, particularly in the presence of humidity. Therefore e.g. tartaric acid and active ingredient are kept separate in the formulation until the moment of application. A multiparticulate pellet approach is chosen. The drug substance is layered from an isopropanolic suspension onto seal coated spherical tartaric acid starter cores with approximately 0.6-0.8 mm diameter (FIG. 3 Structure of dabigatran etexilate pellets'.

For `CCCCCCOC(=O)N=C(N)c1ccc(NCc2nc3cc(C(=O)N(CCC(=O)OCC)c4ccccn4)ccc3n2C)cc1` [Dabigatran etexilate mesilate, dabigatran etexilate methansulfonate], the sensitivity to hydrolysis was “sensitive to hydrolysis especially at low pH”.
